Results on one molecule are retold here after paper PMC5725665, “Discovery of a Highly Selective Cell‐Active Inhibitor of the Histone Lysine Demethylases KDM2/7” (Angewandte Chemie (International Ed. in English), 2017).

What all share (experiment): biochemical
Holding throughout (design): AlphaScreen histone demethylase activity assay
A general note: In Alpha technology, singlet oxygen from a donor bead excites a nearby acceptor bead.

For assay [1], the target named is JARID1A (KDM5A) (Homo sapiens, UniProt P29375). From the text: (§1) A base‐mediated 5‐endo‐trig cyclization of a C‐2‐substituted aromatic imine afforded the racemic indoline core with two adjacent stereocenters. Subsequent acylation of the indoline ring system conferred stability towards oxidation and provided a handle for modulating polarity. Finally, metal‐catalysed cross‐coupling of the aryl bromide provided access to a variety of linkers between the indoline core and pyrrolidine capping group. In total, 45 racemic compounds were synthesized, and IC50 values for inhibition of KDM2A were determined using two orthogonal enzyme activity assays: AlphaScreen25 and RapidFire MS26 (see Section S3.1 in the Supporting Information for complete inhibition data). Key structure–activity relationships are summarized below (Scheme 1 B, compounds 2–12). […] In immunofluorescence assays using HeLa cells ectopically expressing catalytically active KDM2A, a dose‐dependent increase in H3K36me2 staining was observed upon incubation with (S,S)‐6, reflecting augmented cellular H3K36me2 levels (Figure 2 A and Section S3.3). […] To profile its selectivity, (S,S)‐6 was tested for inhibitory activity against a panel of KDMs, methyllysine binding motifs, and epigenetic enzymes.
Chain of JARID1A (KDM5A) (P29375 whole entry): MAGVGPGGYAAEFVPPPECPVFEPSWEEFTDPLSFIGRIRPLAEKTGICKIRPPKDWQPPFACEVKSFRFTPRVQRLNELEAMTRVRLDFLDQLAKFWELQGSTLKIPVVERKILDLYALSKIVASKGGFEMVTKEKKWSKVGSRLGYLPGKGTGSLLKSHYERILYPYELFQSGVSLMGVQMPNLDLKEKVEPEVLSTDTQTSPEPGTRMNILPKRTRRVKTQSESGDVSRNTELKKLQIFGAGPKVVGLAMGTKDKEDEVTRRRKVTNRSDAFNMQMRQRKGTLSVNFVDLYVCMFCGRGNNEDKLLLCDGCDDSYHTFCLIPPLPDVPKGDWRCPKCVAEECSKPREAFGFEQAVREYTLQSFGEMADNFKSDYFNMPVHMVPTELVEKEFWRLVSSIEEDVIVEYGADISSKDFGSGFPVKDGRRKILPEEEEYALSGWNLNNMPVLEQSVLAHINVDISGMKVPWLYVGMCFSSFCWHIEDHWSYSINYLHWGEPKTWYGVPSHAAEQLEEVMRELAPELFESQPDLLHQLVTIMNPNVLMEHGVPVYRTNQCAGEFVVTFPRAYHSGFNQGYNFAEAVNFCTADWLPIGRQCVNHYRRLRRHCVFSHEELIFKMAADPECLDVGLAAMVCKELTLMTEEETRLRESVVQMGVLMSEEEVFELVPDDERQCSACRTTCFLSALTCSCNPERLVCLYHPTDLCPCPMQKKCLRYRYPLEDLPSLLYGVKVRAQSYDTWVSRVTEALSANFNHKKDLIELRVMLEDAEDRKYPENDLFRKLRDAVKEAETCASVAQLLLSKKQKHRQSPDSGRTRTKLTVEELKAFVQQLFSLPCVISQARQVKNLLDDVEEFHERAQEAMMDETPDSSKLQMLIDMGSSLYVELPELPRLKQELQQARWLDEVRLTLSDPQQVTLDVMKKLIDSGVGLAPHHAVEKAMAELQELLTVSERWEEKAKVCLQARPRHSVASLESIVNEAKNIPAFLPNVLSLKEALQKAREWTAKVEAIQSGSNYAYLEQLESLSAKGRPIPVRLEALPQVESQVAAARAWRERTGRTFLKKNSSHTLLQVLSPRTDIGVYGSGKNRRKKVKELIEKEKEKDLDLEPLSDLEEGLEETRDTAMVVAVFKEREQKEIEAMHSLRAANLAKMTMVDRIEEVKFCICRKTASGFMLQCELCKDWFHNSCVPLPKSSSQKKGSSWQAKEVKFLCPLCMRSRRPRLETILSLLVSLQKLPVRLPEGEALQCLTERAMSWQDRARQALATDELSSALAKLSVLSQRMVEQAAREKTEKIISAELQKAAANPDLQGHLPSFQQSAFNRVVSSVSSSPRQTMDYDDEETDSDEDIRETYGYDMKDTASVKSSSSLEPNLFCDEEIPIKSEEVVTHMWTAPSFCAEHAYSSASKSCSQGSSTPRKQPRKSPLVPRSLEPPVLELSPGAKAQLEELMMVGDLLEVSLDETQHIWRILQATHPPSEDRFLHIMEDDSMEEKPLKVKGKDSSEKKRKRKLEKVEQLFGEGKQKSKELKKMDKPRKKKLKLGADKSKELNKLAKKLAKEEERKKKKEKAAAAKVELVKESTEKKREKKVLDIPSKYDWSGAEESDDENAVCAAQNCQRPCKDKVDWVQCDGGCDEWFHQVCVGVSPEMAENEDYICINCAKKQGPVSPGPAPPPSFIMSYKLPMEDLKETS

Assay [2] concerns the target T1, JMJD2A (KDM4A) (Homo sapiens, UniProt O75164).
T1 sequence (O75164 1-1064): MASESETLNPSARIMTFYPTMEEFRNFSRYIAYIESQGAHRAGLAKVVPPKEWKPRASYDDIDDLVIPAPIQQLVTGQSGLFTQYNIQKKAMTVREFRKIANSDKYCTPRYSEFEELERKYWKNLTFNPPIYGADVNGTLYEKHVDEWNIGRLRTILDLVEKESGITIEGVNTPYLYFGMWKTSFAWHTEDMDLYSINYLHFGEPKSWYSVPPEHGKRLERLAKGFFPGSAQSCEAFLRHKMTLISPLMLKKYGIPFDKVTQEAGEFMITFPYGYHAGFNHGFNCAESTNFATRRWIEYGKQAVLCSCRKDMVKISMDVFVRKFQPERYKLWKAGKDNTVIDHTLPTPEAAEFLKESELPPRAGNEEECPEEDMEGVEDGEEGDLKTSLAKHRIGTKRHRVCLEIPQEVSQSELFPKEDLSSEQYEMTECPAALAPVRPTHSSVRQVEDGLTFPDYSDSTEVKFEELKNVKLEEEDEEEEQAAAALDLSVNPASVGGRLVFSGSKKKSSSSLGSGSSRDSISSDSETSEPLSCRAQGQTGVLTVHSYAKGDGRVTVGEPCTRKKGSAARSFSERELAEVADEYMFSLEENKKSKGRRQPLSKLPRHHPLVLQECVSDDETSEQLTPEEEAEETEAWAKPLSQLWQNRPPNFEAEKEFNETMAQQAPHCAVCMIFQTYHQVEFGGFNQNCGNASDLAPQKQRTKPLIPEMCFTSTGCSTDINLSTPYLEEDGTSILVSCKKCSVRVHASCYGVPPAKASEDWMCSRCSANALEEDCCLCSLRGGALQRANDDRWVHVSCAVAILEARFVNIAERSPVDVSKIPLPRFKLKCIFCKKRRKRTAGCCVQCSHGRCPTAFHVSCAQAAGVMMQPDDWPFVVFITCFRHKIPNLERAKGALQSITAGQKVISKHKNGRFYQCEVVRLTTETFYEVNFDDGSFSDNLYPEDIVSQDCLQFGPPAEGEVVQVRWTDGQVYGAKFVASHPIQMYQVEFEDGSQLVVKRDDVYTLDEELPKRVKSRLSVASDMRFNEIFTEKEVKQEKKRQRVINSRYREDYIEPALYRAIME
As to conditions: read-out: KDM4A pIC50 (converted).
Description: as §1

Assay [3] concerns the target T2, JMJD2D (KDM4D) (Homo sapiens, UniProt Q6B0I6).
T2 sequence (Q6B0I6 1-523): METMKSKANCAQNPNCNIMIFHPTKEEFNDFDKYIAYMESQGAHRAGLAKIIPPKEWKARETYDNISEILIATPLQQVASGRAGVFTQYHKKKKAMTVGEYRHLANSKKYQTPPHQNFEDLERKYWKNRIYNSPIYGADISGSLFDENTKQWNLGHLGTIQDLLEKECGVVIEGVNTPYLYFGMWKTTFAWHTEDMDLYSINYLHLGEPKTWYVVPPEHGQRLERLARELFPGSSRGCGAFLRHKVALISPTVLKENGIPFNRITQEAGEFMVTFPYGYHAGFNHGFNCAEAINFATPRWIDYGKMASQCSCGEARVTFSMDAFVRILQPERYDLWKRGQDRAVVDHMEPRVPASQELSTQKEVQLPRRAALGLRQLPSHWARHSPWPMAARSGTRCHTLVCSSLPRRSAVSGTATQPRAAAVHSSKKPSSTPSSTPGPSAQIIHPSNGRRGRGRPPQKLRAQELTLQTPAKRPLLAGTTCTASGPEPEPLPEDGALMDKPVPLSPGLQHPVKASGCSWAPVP
Description: as §1

The target in assay [4] is PHF8 (KDM7B) (Homo sapiens, UniProt Q9UPP1). As to conditions: read-out: KDM7B pIC50 (converted).
Chain of PHF8 (KDM7B) (Q9UPP1 whole entry): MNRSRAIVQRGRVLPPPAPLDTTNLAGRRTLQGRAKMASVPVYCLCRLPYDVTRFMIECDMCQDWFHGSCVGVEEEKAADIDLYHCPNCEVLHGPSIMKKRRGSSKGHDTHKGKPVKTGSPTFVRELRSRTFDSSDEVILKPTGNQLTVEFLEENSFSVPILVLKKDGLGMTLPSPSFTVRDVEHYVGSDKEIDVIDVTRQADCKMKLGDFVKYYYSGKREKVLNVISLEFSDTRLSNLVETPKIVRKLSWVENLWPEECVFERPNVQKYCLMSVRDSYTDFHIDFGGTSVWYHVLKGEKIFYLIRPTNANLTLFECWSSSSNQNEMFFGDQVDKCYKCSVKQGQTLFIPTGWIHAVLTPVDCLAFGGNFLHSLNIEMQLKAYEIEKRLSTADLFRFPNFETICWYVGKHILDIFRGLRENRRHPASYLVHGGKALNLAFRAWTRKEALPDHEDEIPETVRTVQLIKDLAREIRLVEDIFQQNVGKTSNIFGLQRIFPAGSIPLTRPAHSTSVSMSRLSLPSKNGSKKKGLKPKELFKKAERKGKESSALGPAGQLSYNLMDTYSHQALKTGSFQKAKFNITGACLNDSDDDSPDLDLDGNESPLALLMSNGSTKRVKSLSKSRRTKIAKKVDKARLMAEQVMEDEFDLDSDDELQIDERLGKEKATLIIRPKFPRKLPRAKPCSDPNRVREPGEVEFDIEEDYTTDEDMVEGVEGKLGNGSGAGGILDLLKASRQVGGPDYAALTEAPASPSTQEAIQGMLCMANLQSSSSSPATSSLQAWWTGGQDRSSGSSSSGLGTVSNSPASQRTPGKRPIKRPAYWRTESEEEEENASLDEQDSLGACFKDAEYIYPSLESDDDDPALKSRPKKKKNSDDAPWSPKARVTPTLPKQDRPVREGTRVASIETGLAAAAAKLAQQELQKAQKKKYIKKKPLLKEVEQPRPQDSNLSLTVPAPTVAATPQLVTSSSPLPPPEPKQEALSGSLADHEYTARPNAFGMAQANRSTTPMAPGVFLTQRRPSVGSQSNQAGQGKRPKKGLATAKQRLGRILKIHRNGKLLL
Description: as §1

In the case of `CC(=O)N1c2ccccc2[C@@](C#N)(c2ccccc2)[C@@H]1c1cncc(CCCCCCCN2CCCC2)c1` [(S,S)-6], in assay [1], the inhibition – broadly, the change of the read-out against control, counted positive when it falls – at 50 µM is -20.3%. Besides, the IC50 in assay [1] (read-out: KDM5A pIC50 (converted)) was greater than 50.1 µM; in assay [2], greater than 20 µM; in assay [3] (read-out: KDM4D pIC50 (converted)) it was greater than 100 µM; in assay [4], 22.8 µM. Besides, in assay [3], the inhibition at 10 µM turned out to be 22.6%.
